Measurements published in paper PMC8602566 (Frontiers in Oncology, 2021).

Key:
[1] = tested on: Human lung cancer cell line A549; experiment: MTT cell viability assay, A549; assay type: cell-based; details: A549, MTT, 72 h, read-out: IC50 antiproliferative activity A549
Protocol: (§1) Cell viability was measured using the 3-(4,5-dimethylthiazol-2-yl)-2,5-diphenyltetrazolium bromide (MTT) assay and was expressed as a ratio to the absorbance value at 570 nm of the control cells.

[2] = tested on: Human liver cancer cell line HepG2; experiment: MTT cell viability assay, HepG2; assay type: cell-based; details: HepG2, MTT, 72 h, read-out: IC50 antiproliferative activity HepG2
Protocol: as §1

[3] = tested on: Human colon carcinoma cell line SW-620; experiment: MTT cell viability assay, SW-620; assay type: cell-based; details: SW-620, MTT, 72 h, read-out: IC50 antiproliferative activity SW-620
Protocol: as §1

[4] = tested on: Human glioblastoma cell line U87; experiment: MTT cell viability assay, U87; assay type: cell-based; details: MTT, 72 h, read-out: IC50 antiproliferative activity U87
Protocol: Human GBM U87 cell line was purchased from the American Type Culture Collection (ATCC). Cells were cultured in Dulbecco’s modified Eagle’s medium (DMEM) supplemented with 10% fetal bovine serum (FBS) and maintained in a 37°C, 5% CO2 incubator. After cells were routinely passaged at 2- to 3-day intervals, experiments were carried out when the cells entered exponential growth phase.
as §1

[5] = tested on: Human glioma cell line LN229; experiment: MTT cell viability assay, LN229; assay type: cell-based; details: LN-229, MTT, 72 h, read-out: IC50 antiproliferative activity LN229
Protocol: as §1

[6] = tested on: acetylated histone H3 in U87 cells; experiment: Western blot analysis for H3-histone acetylation; assay type: cell-based, Human
Protocol: U87 cells (5 × 10^5 cells/ml) in six-well plates were incubated with DMC-HA and lysed in radioimmunoprecipitation assay (RIPA) buffer containing protease and phosphatase inhibitors. Protein contents in the lysates were determined by Bradford’s assay, and 50 μg was separated by SDS polyacrylamide gel electrophoresis (SDS-PAGE) electrophoresis. Proteins were transferred to membranes and probed with human anti-acetylated H3 and anti-β actin antibodies as a loading control. Membranes were then labeled with the appropriate horseradish peroxidase (HRP)-conjugated immunoglobulin G (IgG), and protein bands were visualized using enhanced chemiluminescence. (Bio-Rad, Hercules, CA, USA).
Next, DMC-HA-induced acetylation of histone H3 in living cells was analyzed using Western blot method.

[7] = Hepatic microsome stability assay, rat; assay type: in vitro ADME; details: rat liver microsomes, NADPH, 37°C, pH 7.4
Protocol: Metabolic stability was assessed in the presence of human, mouse, and rat liver microsomes (XenoTech, Lenexa, KS, USA). All liquid dispenses and transfer steps were performed with the Freedom Evo automated liquid handler (Tecan US). Compound stock solutions were initially prepared in 100% DMSO and subsequently diluted in acetonitrile for the assay. The pH of the reactions was kept at 7.4 with potassium phosphate buffer. The reaction wells were prepared by adding microsomes to a well and allowed to warm to 37°C. Then, compound was added to each well. The reactions were […] by adding cofactor reduced nicotinamide adenine dinucleotide phosphate (NADPH) to the reaction well containing microsomes and compounds. Negative controls received buffer only. Immediately after reactions started, 0-min aliquots were promptly collected and mixed in a separate well with ice cold acetonitrile to quench the reactions. The remainder of the reaction volume was incubated at 37°C with shaking. An additional aliquot was collected at 60 min after the start of the reaction and promptly quenched with ice cold acetonitrile. Samples were vortexed and centrifuged at 3,500 rpm for 10 min. The amount of compound in the supernatant was determined by liquid chromatography–tandem mass spectrometry (LC/MS/MS) (Thermo Fischer Scientific, San Jose, CA, USA), and the percent of parent compound remaining after 60 min was calculated. Results are the mean of each reaction triplicate, normalized to the internal standard, and expressed as the percent of compound remaining after the incubation time.
Structures that are active in vitro may not be potent in vivo due to their susceptibility to metabolism in the body. We then thoroughly examined the liver microsomal metabolic stability of DMC-HA across three different species (Table 3). […] In addition, the half-life of DMC-HA in human microsome is generally two to three times longer than those in mice and rats. Collectively, the in vitro liver microsomal stability of DMC-HA is favorable, guaranteeing its further in vivo studies.

[8] = Plasma and brain distribution study; assay type: in vivo; details: mice, single administration, i.v. 5 mg/kg or p.o. 10 mg/kg
Source text: Discovery of drugs for the treatment of GBM encounters formidable challenges to their ability to cross the blood–brain barrier (BBB) ([31]). Thus, we further investigated the distribution of DMC-HA to identify whether it has the ability to cross the BBB. […] In addition, stable and durable distribution of DMC-HA in the brain was observed after p.o. administration. Nevertheless, optimization for the balance among potency, selectivity, metabolic stability, and brain permeability in a single molecule was challenging. These preliminary results provide valuable information for further structure optimization of DMC-HA and a guidance for its following in vivo studies.
Figure 5 Concentrations of DMC-HA in plasma and brain over time following a single administration in mice. Left, i.v. 5 mg/kg; right, p.o. 10 mg/kg.

HDAC5 = HDAC5 (Homo sapiens, UniProt Q9UQL6); experiment: HDACs inhibition assay, HDAC5
Chain of HDAC5 (Q9UQL6 whole entry): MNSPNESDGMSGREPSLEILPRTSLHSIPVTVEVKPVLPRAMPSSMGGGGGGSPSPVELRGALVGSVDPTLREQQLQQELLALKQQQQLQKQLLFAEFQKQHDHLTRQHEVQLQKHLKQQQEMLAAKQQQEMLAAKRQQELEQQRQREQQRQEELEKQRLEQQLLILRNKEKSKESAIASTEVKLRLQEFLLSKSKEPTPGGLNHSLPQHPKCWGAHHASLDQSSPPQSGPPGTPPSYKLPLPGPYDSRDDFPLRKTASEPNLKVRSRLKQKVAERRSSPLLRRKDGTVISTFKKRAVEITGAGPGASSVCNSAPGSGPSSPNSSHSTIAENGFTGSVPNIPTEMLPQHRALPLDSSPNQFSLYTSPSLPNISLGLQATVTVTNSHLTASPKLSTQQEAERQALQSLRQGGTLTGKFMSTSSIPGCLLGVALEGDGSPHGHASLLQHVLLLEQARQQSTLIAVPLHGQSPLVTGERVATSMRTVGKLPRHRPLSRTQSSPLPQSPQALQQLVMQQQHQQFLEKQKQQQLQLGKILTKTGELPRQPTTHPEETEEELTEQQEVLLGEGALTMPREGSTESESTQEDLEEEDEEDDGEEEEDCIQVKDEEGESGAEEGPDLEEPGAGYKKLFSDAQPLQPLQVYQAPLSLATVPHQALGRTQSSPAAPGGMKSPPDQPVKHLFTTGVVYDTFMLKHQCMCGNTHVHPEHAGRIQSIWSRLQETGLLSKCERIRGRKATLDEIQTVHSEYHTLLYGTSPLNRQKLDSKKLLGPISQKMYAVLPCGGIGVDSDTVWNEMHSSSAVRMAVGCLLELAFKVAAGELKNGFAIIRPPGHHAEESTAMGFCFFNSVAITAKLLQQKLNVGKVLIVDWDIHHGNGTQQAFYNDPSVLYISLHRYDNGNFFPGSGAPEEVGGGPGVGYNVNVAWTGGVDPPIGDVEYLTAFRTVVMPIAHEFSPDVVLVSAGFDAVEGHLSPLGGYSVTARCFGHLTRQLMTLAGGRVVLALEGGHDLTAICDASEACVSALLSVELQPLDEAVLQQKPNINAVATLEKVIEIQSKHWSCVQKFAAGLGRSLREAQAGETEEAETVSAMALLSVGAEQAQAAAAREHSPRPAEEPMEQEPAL
Protocol: (§2) The inhibition assays for HDACs were carried out according to standard protocols. […] The reaction was stopped by the addition of 45 μl of 100 mM HEPES (pH 7.5) and 0.08% sodium dodecyl sulfate (SDS). The substrate and the product were then separated electrophoretically using a LabChip 3000 system (Caliper Life Sciences, Hopkinton, MA) with blue laser excitation and green fluorescence detection.

HDAC8 = HDAC8 (Homo sapiens, UniProt Q9BY41); experiment: HDACs inhibition assay, HDAC8
Chain of HDAC8 (Q9BY41 whole entry): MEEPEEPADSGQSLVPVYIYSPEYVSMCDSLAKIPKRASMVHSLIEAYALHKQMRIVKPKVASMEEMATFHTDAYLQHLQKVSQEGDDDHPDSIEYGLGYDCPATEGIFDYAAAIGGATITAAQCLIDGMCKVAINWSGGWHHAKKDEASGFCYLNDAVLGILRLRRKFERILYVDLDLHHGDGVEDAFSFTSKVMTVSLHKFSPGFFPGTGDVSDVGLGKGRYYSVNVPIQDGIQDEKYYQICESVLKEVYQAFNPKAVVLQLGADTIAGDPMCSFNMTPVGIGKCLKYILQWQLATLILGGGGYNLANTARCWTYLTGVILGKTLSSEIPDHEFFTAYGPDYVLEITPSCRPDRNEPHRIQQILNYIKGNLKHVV
Protocol: as §2

Question: With `COc1cc(/C=C/C(=O)CC(=O)/C=C/c2ccc(/C=C/C(=O)NO)cc2)ccc1O` [DMC-HA] as the molecule, how does the IC50 [1] read?
Answer: 5.33 ± 0.93 µM

Question: What about the IC50 [2] of the same molecule?
Answer: 4.28 ± 0.52 µM

Question: And the IC50 [3]?
Answer: 3.22 ± 0.3 µM

Question: And the IC50 [4]?
Answer: 2.78 ± 0.81 µM

Question: And the IC50 [5]?
Answer: 3.38 ± 0.29 µM

Question: What about the “acetylation of histone H3, time dependence” value ([6]; 5 μM, different times) of the same molecule?
Answer: increased in a time-dependent manner

Question: What about the “acetylation of histone H3, dose dependence” value ([6]; various concentrations, 24 h) of the same molecule?
Answer: dose dependently increased the acetylation of histone H3

Question: What about the “Rat Liver Microsomal Stability T1/2” value [7] of the same molecule?
Answer: 40.7 min

Question: What about the microsomal CLint [7] of the same molecule?
Answer: 34.2 µL/min/mg

Question: What about the “ability to cross the BBB” value [8] of the same molecule?
Answer: can indeed penetrate the BBB

Question: What about the Kp ([8]; mouse, brain and plasma, other: intravenous and oral (i.v. and p.o. arms), over time, read-out: brain-to-plasma ratios) of the same molecule?
Answer: 0.08 to 0.23

Question: What about the IC50 (HDAC5) of the same molecule?
Answer: > 10 µM

Question: And the IC50 (HDAC8)?
Answer: 2.93 µM
